Laboratory results as given in patent US20240360177A1, “PEPTIDES WITH ANTIMICROBIAL ACTIVITIES” (priority 2021, published 2024).
Converted amounts (≈) assume the structure as drawn. Starred links: 1 amine or outer side, 2 acyl side, 3 side chain; linkers in the order of their positions; H or OH if unused. Non-standard residues stand in square brackets, D forms with d. Residues, ends and D or L forms follow the SMILES beside them. *: point of attachment. Cyclohexanecarbonyl = O=C(C1CCCCC1)*; Morpholinoacetyl = O=C(CN1CCOCC1)*; NH(4-F-phenyl) = Fc1ccc(N*)cc1; αMeL = CC(C)C[C@](C)(N)C(=O)O; CO = O=C([*:1])[*:2]; AEA = NCCOCC(=O)O; Ms = CS(=O)(=O)*

What was measured:
Details in all cases: 24 h
C. auris = tested on: C. auris
C. dubliniensis = tested on: C. dubliniensis
C. glabrata = tested on: C. glabrata
C. albicans = tested on: C. albicans
C. parapsilosis = tested on: C. parapsilosis
C. tropicalis = tested on: C. tropicalis
C. krusei = tested on: C. krusei

| SMILES | MIC C. auris (C. auris) | MIC C. dubliniensis (C. dubliniensis) | MIC C. glabrata (C. glabrata) | MIC C. albicans (C. albicans) | MIC C. parapsilosis (C. parapsilosis) | MIC C. tropicalis (C. tropicalis) | MIC C. krusei (C. krusei) |
| --- | --- | --- | --- | --- | --- | --- | --- |
| CC(C)C[C@](C)(NC(=O)[C@H](CCCNC(=N)N)NC(=O)[C@@H](CCCNC(=N)N)NC(=O)[C@H](CCCNC(=N)N)NC(=O)[C@@H](CCCNC(=N)N)NC(=O)[C@](C)(CC(C)C)NC(=O)[C@@H](CCCNC(=N)N)NC(=O)[C@H](CCCNC(=N)N)NC(=O)[C@@H](CCCNC(=N)N)NC(=O)[C@](C)(CC(C)C)NC(=O)[C@@H](CCCNC(=N)N)NC(=O)[C@H](CCCNC(=N)N)NC(=O)[C@H](N)CCCNC(=N)N)C(=O)N[C@H](CCCNC(=N)N)C(=O)N[C@@H](CCCNC(=N)N)C(=O)N[C@H](CCCNC(=N)N)C(=O)N[C@@H](CCCNC(=N)N)C(N)=O [SEQ ID NO: 37, rRr-Leu(Me)-rRr-Leu(Me)-rRrR-Leu(Me)-rRrR-NH2] (H-[dR]R[dR][αMeL][dR]R[dR][αMeL][dR]R[dR]R[αMeL][dR]R[dR]R-NH2) | 1 µg/mL (≈ 0.387 µM) | 0.5 µg/mL (≈ 0.193 µM) | 0.5 µg/mL (≈ 0.193 µM) | 0.5 µg/mL (≈ 0.193 µM) | 0.5 µg/mL (≈ 0.193 µM) | 0.5 µg/mL (≈ 0.193 µM) | 1 µg/mL (≈ 0.387 µM) |
| N=C(N)NCCC[C@@H](N)C(=O)N[C@@H](CCCNC(=N)N)C(=O)N[C@H](CCCNC(=N)N)C(=O)NCCNCC(=O)N[C@H](CCCNC(=N)N)C(=O)N[C@@H](CCCNC(=N)N)C(=O)N[C@H](CCCNC(=N)N)C(=O)NCCNCC(=O)N[C@H](CCCNC(=N)N)C(=O)N[C@@H](CCCNC(=N)N)C(=O)N[C@H](CCCNC(=N)N)C(=O)N[C@@H](CCCNC(=N)N)C(=O)NCCNCC(=O)N[C@H](CCCNC(=N)N)C(=O)N[C@@H](CCCNC(=N)N)C(=O)N[C@H](CCCNC(=N)N)C(=O)N[C@@H](CCCNC(=N)N)C(N)=O [SEQ ID NO: 46, rRr-(Aeg)-rRr-(Aeg)-rRrR-(Aeg)-rRrR-NH2] | 8 µg/mL (≈ 3.19 µM) | 0.5 µg/mL (≈ 0.2 µM) | 1 µg/mL (≈ 0.399 µM) | 0.5 µg/mL (≈ 0.2 µM) | 0.25 µg/mL (≈ 0.0998 µM) | 0.5 µg/mL (≈ 0.2 µM) | 0.5 µg/mL (≈ 0.2 µM) |
| N=C(N)NCCC[C@@H](N)C(=O)N[C@@H](CCCNC(=N)N)C(=O)N[C@H](CCCNC(=N)N)C(=O)NCCOCC(=O)N[C@H](CCCNC(=N)N)C(=O)N[C@@H](CCCNC(=N)N)C(=O)N[C@H](CCCNC(=N)N)C(=O)NCCOCC(=O)N[C@H](CCCNC(=N)N)C(=O)N[C@@H](CCCNC(=N)N)C(=O)N[C@H](CCCNC(=N)N)C(=O)N[C@@H](CCCNC(=N)N)C(=O)NCCOCC(=O)N[C@H](CCCNC(=N)N)C(=O)N[C@@H](CCCNC(=N)N)C(=O)N[C@H](CCCNC(=N)N)C(=O)N[C@@H](CCCNC(=N)N)C(N)=O [SEQ ID NO: 52, rRr-(Aea)-rRr-(Aea)-rRrR-(Aea)-rRrR-NH2] (H-[dR]R[dR][AEA][dR]R[dR][AEA][dR]R[dR]R[AEA][dR]R[dR]R-NH2) | 1 µg/mL (≈ 0.399 µM) | 0.5 µg/mL (≈ 0.199 µM) | 0.5 µg/mL (≈ 0.199 µM) | 0.5 µg/mL (≈ 0.199 µM) | 0.25 µg/mL (≈ 0.0997 µM) | 0.5 µg/mL (≈ 0.199 µM) | 0.5 µg/mL (≈ 0.199 µM) |
| N=C(N)NCCC[C@@H](N)C(=O)N[C@@H](CCCNC(=N)N)C(=O)N[C@H](CCCNC(=N)N)C(=O)N1CCC[C@H]1C(=O)N[C@H](CCCNC(=N)N)C(=O)N[C@@H](CCCNC(=N)N)C(=O)N[C@H](CCCNC(=N)N)C(=O)N1CCC[C@H]1C(=O)N[C@H](CCCNC(=N)N)C(=O)N[C@@H](CCCNC(=N)N)C(=O)N[C@H](CCCNC(=N)N)C(=O)N[C@@H](CCCNC(=N)N)C(=O)N1CCC[C@H]1C(=O)N[C@H](CCCNC(=N)N)C(=O)N[C@@H](CCCNC(=N)N)C(=O)N[C@H](CCCNC(=N)N)C(=O)N[C@@H](CCCNC(=N)N)C(=O)O [SEQ ID NO: 54, rRr-P-rRr-P-rRrR-P-rRrR] (H-[dR]R[dR]P[dR]R[dR]P[dR]R[dR]RP[dR]R[dR]R-OH) | 2 µg/mL (≈ 0.801 µM) | 0.5 µg/mL (≈ 0.2 µM) | 0.5 µg/mL (≈ 0.2 µM) | 0.25 µg/mL (≈ 0.1 µM) | 0.25 µg/mL (≈ 0.1 µM) | 0.25 µg/mL (≈ 0.1 µM) | 0.5 µg/mL (≈ 0.2 µM) |
| CS(=O)(=O)N[C@H](CCCNC(=N)N)C(=O)N[C@@H](CCCNC(=N)N)C(=O)N[C@H](CCCNC(=N)N)C(=O)N1CCC[C@H]1C(=O)N[C@H](CCCNC(=N)N)C(=O)N[C@@H](CCCNC(=N)N)C(=O)N[C@H](CCCNC(=N)N)C(=O)N1CCC[C@H]1C(=O)N[C@H](CCCNC(=N)N)C(=O)N[C@@H](CCCNC(=N)N)C(=O)N[C@H](CCCNC(=N)N)C(=O)N[C@@H](CCCNC(=N)N)C(=O)N1CCC[C@H]1C(=O)N[C@H](CCCNC(=N)N)C(=O)N[C@@H](CCCNC(=N)N)C(=O)N[C@H](CCCNC(=N)N)C(=O)N[C@@H](CCCNC(=N)N)C(N)=O [SEQ ID NO: 56, CH3SO2NH-rRr-P-rRr-P-rRrR-P-rRrR-NH2] (Ms-[dR]R[dR]P[dR]R[dR]P[dR]R[dR]RP[dR]R[dR]R-NH2) | 0.5 µg/mL (≈ 0.194 µM) | 0.5 µg/mL (≈ 0.194 µM) | 0.5 µg/mL (≈ 0.194 µM) | 0.5 µg/mL (≈ 0.194 µM) | 0.25 µg/mL (≈ 0.0972 µM) | 0.5 µg/mL (≈ 0.194 µM) | 1 µg/mL (≈ 0.389 µM) |
| N=C(N)NCCC[C@H](NC(=O)[C@@H](CCCNC(=N)N)NC(=O)[C@H](CCCNC(=N)N)NC(=O)[C@@H](CCCNC(=N)N)NC(=O)[C@@H]1CCCN1C(=O)[C@H](CCCNC(=N)N)NC(=O)[C@@H](CCCNC(=N)N)NC(=O)[C@H](CCCNC(=N)N)NC(=O)[C@@H](CCCNC(=N)N)NC(=O)[C@@H]1CCCN1C(=O)[C@@H](CCCNC(=N)N)NC(=O)[C@H](CCCNC(=N)N)NC(=O)[C@@H](CCCNC(=N)N)NC(=O)[C@@H]1CCCN1C(=O)[C@@H](CCCNC(=N)N)NC(=O)[C@H](CCCNC(=N)N)NC(=O)[C@@H](CCCNC(=N)N)NC(=O)Nc1ccc(F)cc1)C(N)=O [SEQ ID NO: 57, 4-FPhNHC(O)NH-rRr-P-rRr-P-rRrR-P-rRrR-NH2] ({NH(4-F-phenyl)-CO}-[dR]R[dR]P[dR]R[dR]P[dR]R[dR]RP[dR]R[dR]R-NH2) | 0.5 µg/mL (≈ 0.19 µM) | 0.5 µg/mL (≈ 0.19 µM) | 0.5 µg/mL (≈ 0.19 µM) | 0.5 µg/mL (≈ 0.19 µM) | 0.5 µg/mL (≈ 0.19 µM) | 0.5 µg/mL (≈ 0.19 µM) | 1 µg/mL (≈ 0.38 µM) |
| N=C(N)NCCC[C@H](NC(=O)[C@@H](CCCNC(=N)N)NC(=O)[C@H](CCCNC(=N)N)NC(=O)[C@@H](CCCNC(=N)N)NC(=O)[C@@H]1CCCN1C(=O)[C@H](CCCNC(=N)N)NC(=O)[C@@H](CCCNC(=N)N)NC(=O)[C@H](CCCNC(=N)N)NC(=O)[C@@H](CCCNC(=N)N)NC(=O)[C@@H]1CCCN1C(=O)[C@@H](CCCNC(=N)N)NC(=O)[C@H](CCCNC(=N)N)NC(=O)[C@@H](CCCNC(=N)N)NC(=O)[C@@H]1CCCN1C(=O)[C@@H](CCCNC(=N)N)NC(=O)[C@H](CCCNC(=N)N)NC(=O)[C@@H](CCCNC(=N)N)NC(=O)C1CCCCC1)C(N)=O [SEQ ID NO: 58, cHexC(O)NH-rRr-P-rRr-P-rRrR-P-rRrR-NH2] (Cyclohexanecarbonyl-[dR]R[dR]P[dR]R[dR]P[dR]R[dR]RP[dR]R[dR]R-NH2; N-terminus and C-terminus assumed) | 1 µg/mL (≈ 0.384 µM) | 0.5 µg/mL (≈ 0.192 µM) | 1 µg/mL (≈ 0.384 µM) | 1 µg/mL (≈ 0.384 µM) | 0.5 µg/mL (≈ 0.192 µM) | 1 µg/mL (≈ 0.384 µM) | 2 µg/mL (≈ 0.768 µM) |
| N=C(N)NCCC[C@H](NC(=O)[C@@H](CCCNC(=N)N)NC(=O)[C@H](CCCNC(=N)N)NC(=O)[C@@H](CCCNC(=N)N)NC(=O)[C@@H]1CCCN1C(=O)[C@H](CCCNC(=N)N)NC(=O)[C@@H](CCCNC(=N)N)NC(=O)[C@H](CCCNC(=N)N)NC(=O)[C@@H](CCCNC(=N)N)NC(=O)[C@@H]1CCCN1C(=O)[C@@H](CCCNC(=N)N)NC(=O)[C@H](CCCNC(=N)N)NC(=O)[C@@H](CCCNC(=N)N)NC(=O)[C@@H]1CCCN1C(=O)[C@@H](CCCNC(=N)N)NC(=O)[C@H](CCCNC(=N)N)NC(=O)[C@@H](CCCNC(=N)N)NC(=O)CN1CCOCC1)C(N)=O [SEQ ID NO: 59, MorpholineCH2C(O)NH-rRr-P-rRr-P-rRrR-P-rRrR-NH2] (Morpholinoacetyl-[dR]R[dR]P[dR]R[dR]P[dR]R[dR]RP[dR]R[dR]R-NH2) | 4 µg/mL (≈ 1.53 µM) | 0.5 µg/mL (≈ 0.191 µM) | 0.5 µg/mL (≈ 0.191 µM) | 0.5 µg/mL (≈ 0.191 µM) | 0.5 µg/mL (≈ 0.191 µM) | 0.5 µg/mL (≈ 0.191 µM) | 2 µg/mL (≈ 0.763 µM) |
| N=C(N)NCCC[C@@H](N)C(=O)N[C@@H](CCCNC(=N)N)C(=O)N[C@H](CCCNC(=N)N)C(=O)N[C@@H](CCCNC(=N)N)C(=O)N1CCC[C@H]1C(=O)N[C@H](CCCNC(=N)N)C(=O)N[C@@H](CCCNC(=N)N)C(=O)N[C@H](CCCNC(=N)N)C(=O)N[C@@H](CCCNC(=N)N)C(=O)N1CCC[C@H]1C(=O)N[C@H](CCCNC(=N)N)C(=O)N[C@@H](CCCNC(=N)N)C(=O)N[C@H](CCCNC(=N)N)C(=O)N[C@@H](CCCNC(=N)N)C(N)=O [SEQ ID NO: 67, rRrR-P-rRrR-P-rRrR-NH2] (H-[dR]R[dR]RP[dR]R[dR]RP[dR]R[dR]R-NH2) | 4 µg/mL (≈ 1.92 µM) | 0.25 µg/mL (≈ 0.12 µM) | 0.5 µg/mL (≈ 0.24 µM) | 0.25 µg/mL (≈ 0.12 µM) | 0.25 µg/mL (≈ 0.12 µM) | 0.5 µg/mL (≈ 0.24 µM) | 0.5 µg/mL (≈ 0.24 µM) |
